In ChEMBL document CHEMBL5518164, “Membrane-permeable tenofovir-di- and monophosphate analogues” (Eur J Med Chem, 2024):
Active and inactive are the calls of the source. The rule behind the calls is not given here.

Assays:
[1] = test system: Human immunodeficiency virus 1; test: Antiviral activity against HIV-1 HE infected in wild type human CEM/0 cells assessed as inhibition of virus-induced giant cell formation incubated for 4 to 5 days by light microscopy; type: functional, organism-based; details: Human immunodeficiency virus 1, HE, CCRF-CEM
[2] = test system: Human immunodeficiency virus 2; test: Antiviral activity against HIV-2 ROD infected in thymidine kinase deficient human CEM cells assessed as inhibition of virus-induced giant cell formation incubated for 4 to 5 days by light microscopy; type: functional, organism-based; details: Human immunodeficiency virus 2, ROD, CCRF-CEM
[3] = Prodrug conversion of the compound in phosphate buffer saline assessed as (R)-9-(2-(phosphonomethoxy)propyl)adenine formation by measuring half life at pH 7.3 by RP18-HPLC analysis; type: ADME
[4] = Lipophilicity of the compound assessed as retention time by RP-HPLC analysis; type: physicochemical
[5] = Selectivity index, ratio of CC50 for cytotoxicity against human CEM cells to EC50 for antiviral activity against HIV-2 ROD infected in thymidine kinase deficient human CEM cells; type: toxicity, cell-based; details: read-out: Ratio CC50/EC50
[6] = test system: Human immunodeficiency virus 1; test: Potency index, ratio of Tenofovir EC50 to test compound EC50 for antiviral activity against HIV-1 HE infected in wild type human CEM/0 cells; type: functional
[7] = test system: Human immunodeficiency virus 2; test: Potency index, ratio of Tenofovir EC50 to test compound EC50 for antiviral activity against HIV-2 ROD infected in wild type human CEM/0 cells; type: functional
[8] = test system: Human immunodeficiency virus 2; test: Antiviral activity against HIV-2 ROD infected in wild type human CEM/0 cells assessed as inhibition of virus-induced giant cell formation incubated for 4 to 5 days by light microscopy; type: functional, organism-based; details: Human immunodeficiency virus 2, ROD, CCRF-CEM
[9] = Prodrug conversion of the compound in phosphate buffer saline assessed as (R)-9-(2-(phosphonomethoxy)propyl)adenine formation by measuring half life in presence of pig liver esterase at pH 7.3 by RP18-HPLC analysis; type: ADME, Sus scrofa
[10] = Cytotoxicity against human CEM cells assessed as inhibition of cell proliferation; type: toxicity, cell-based, CCRF-CEM
[11] = Half life of the compound in human CEM/0 cell extracts by RP18-HPLC analysis; type: ADME, CCRF-CEM
[12] = Prodrug conversion of the compound in phosphate buffer saline assessed as Tenofovir monophosphate by measuring half life in presence of pig liver esterase at pH 7.3 by RP18-HPLC analysis; type: ADME, Sus scrofa
[13] = Prodrug conversion of the compound in phosphate buffer saline assessed as Tenofovir monophosphate formation by measuring half life at pH 7.3 by RP18-HPLC analysis; type: ADME
[14] = biological target: T1, DNA polymerase subunit gamma-1 (Homo sapiens) (UniProt P54098); test: Substrate activity at human DNA polymerase gamma assessed as elongation of primer at 250 uM incubated for 120 mins in presence of primer/template mixture by primer extension assay based fluorescence analysis
T1 sequence (whole entry): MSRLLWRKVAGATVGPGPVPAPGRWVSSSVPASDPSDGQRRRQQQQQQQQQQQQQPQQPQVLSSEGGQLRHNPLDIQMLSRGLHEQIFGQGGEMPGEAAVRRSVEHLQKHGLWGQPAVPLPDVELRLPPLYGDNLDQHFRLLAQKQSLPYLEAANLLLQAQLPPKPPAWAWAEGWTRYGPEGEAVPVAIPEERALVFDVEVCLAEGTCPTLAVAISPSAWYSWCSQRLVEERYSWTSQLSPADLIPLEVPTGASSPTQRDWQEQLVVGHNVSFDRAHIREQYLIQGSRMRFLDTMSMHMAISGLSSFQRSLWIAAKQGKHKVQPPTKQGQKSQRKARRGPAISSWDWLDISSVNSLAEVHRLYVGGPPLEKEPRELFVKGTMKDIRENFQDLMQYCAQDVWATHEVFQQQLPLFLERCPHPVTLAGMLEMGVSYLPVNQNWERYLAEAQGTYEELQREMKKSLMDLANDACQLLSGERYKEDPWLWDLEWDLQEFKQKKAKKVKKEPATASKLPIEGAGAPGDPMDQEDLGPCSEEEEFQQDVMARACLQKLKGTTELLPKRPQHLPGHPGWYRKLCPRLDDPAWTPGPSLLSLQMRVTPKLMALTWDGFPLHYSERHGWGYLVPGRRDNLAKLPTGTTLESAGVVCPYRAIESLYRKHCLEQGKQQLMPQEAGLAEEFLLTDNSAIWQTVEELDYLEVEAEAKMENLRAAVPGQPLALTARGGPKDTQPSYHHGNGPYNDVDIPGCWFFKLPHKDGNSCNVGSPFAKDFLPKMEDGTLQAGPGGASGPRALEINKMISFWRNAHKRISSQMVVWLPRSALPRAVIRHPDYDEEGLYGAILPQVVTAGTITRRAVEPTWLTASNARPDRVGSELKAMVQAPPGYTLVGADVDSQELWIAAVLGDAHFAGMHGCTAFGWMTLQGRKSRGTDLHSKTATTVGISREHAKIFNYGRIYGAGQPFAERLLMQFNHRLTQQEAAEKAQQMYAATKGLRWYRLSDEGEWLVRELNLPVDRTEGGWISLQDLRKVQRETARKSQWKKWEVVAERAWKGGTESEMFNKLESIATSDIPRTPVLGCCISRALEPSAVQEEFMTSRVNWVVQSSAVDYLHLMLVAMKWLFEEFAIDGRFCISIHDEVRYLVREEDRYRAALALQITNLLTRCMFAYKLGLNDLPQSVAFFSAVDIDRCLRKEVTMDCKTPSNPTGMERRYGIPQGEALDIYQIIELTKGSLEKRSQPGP

[15] = test system: Human immunodeficiency virus; test: Substrate activity at HIV reverse transcriptase assessed as n+1 band formation at 25000 uM incubated for 30 mins in presence of primer/template mixture and dNTPs by primer extension assay based fluorescence analysis
[16] = test system: Human immunodeficiency virus; test: Substrate activity at HIV reverse transcriptase assessed as elongation of primer at 97.6 to 12500 uM incubated for 30 mins in presence of primer/template mixture and 250 uM dNTPs by primer extension assay based fluorescence analysis; details: dose 97.6-12500 µM
[17] = test system: Human immunodeficiency virus; test: Substrate activity at HIV reverse transcriptase assessed as full elongation of primer by measuring n+5 band formation incubated for 30 mins in presence of primer/template mixture and dNTPs by primer extension assay based fluorescence analysis
[18] = test system: Human immunodeficiency virus; test: Substrate activity at HIV reverse transcriptase assessed as n+1 band formation incubated for 30 mins in presence of primer/template mixture by primer extension assay based fluorescence analysis
[19] = biological target: T1, DNA polymerase subunit gamma-1 (Homo sapiens); test: Substrate activity at human DNA polymerase gamma assessed as elongation of primer at 250 uM incubated for 120 mins in presence of primer/template mixture and dNTPs by primer extension assay based fluorescence analysis
[20] = test system: Human immunodeficiency virus; test: Inhibition of HIV reverse transcriptase assessed as inhibition of elongation of primer at 25000 uM incubated for 30 mins in presence of primer/template mixture and dNTPs by primer extension assay based fluorescence analysis
[21] = test system: Human immunodeficiency virus; test: Substrate activity at HIV reverse transcriptase assessed as n+1 band formation incubated for 30 mins in presence of primer/template mixture and dNTPs by primer extension assay based fluorescence analysis
[22] = test system: Human immunodeficiency virus; test: Inhibition of HIV reverse transcriptase assessed as inhibition of elongation of primer at 25000 uM incubated for 30 mins in presence of primer/template mixture and 250 uM dNTPs by primer extension assay based fluorescence analysis
[23] = test system: Human immunodeficiency virus; test: Substrate activity at HIV reverse transcriptase assessed as elongation of primer at 97.6 to 12500 uM incubated for 30 mins in presence of primer/template mixture and dNTPs by primer extension assay based fluorescence analysis; details: dose 97.6-12500 µM
[24] = test system: Human immunodeficiency virus; test: Substrate activity at HIV reverse transcriptase assessed as n+1 band formation at 97.6 to 12500 uM incubated for 30 mins in presence of primer/template mixture and 250 uM dNTPs by primer extension assay based fluorescence analysis; details: dose 97.6-12500 µM
[25] = test system: Human immunodeficiency virus; test: Substrate activity at HIV reverse transcriptase assessed as n+1 band formation incubated for 30 mins in presence of primer/template mixture and 2.6 fold excess of dNTPs by primer extension assay based fluorescence analysis
[26] = test system: Human immunodeficiency virus 2; test: Potency index, ratio of Tenofovir EC50 to test compound EC50 for antiviral activity against HIV-2 ROD infected in thymidine kinase deficient human CEM cells; type: functional

SMILES | EC50 [1] | EC50 [2] | t1/2 [3] | Retention_time [4] | selectivity ratio [5] | EC50 [8] | t1/2 [9] | CC50 [10] | half-life [11] | Activity [14] | Activity [17] | Activity [18] | Activity [19] | inhibition [20] | Activity [21] | inhibition [22] | also measured
CCCCCCCCCCCCCCCCCCOP(=O)(OCc1ccc(OC(=O)CCCC)cc1)OP(=O)(O)OP(=O)(O)CO[C@H](C)Cn1cnc2c(N)ncnc21 (stereo partly specified) | 0.15 µM | 0.058 µM | 51 h | 17.5 min | 986 | 0.076 µM | 0.683 h | 57.2 µM | 2.1 h | – | – | – | – | – | – | – | Ratio EC50 [6]: 13; Ratio EC50 [7]: 23
CCCCCCCCC(=O)Oc1ccc(COOP(=O)(O)OP(=O)(O)OP(=O)(O)CO[C@H](C)Cn2cnc3c(N)ncnc32)cc1 | 1.13 µM | 0.56 µM | 9 h | 16.4 min | 87 | 0.35 µM | 0.00267 h | 48.9 µM | 0.97 h | – | – | – | – | – | – | – | t1/2 [12]: 3.6 s; t1/2 [13]: > 200 h
C[C@H](Cn1cnc2c(N)ncnc21)OCP(=O)(O)OP(=O)(O)OP(=O)(O)O | – | – | – | – | – | – | – | – | – | inactive | Active | Active | Active | Active | Active | Active | Activity [15]: inactive; Activity [16]: Active; Activity [23]: Active; Activity [24]: Active
CCCCCCCCCCCCCCCCCCOP(=O)(O)OP(=O)(O)OP(=O)(O)CO[C@H](C)Cn1cnc2c(N)ncnc21 | 0.36 µM | 0.027 µM | > 200 h | 14.2 min | > 3700 | 0.7 µM | > 50 h | > 100 µM | > 8 h | inactive | Active | Active | Active | Active | inactive | Active | Activity [25]: Active; Ratio EC50 [26]: 32
